Test results from US8983257B2, “Therapeutic light delivery apparatus, method, and system” (Nomir Medical Technologies, Inc., priority 2002, dated 2015).
Several values for one entry are separate records, joined by “and”; a condition that tells them apart may be missing. Equal entries are not always repeated. Entries after “also recorded” stand apart in the source; their conditions may differ.

Legend:
[1] = tested on: MRSA; experiment: MRSA CFU counts on agar with trimethoprim or erythromycin after sub-lethal NIMELS laser (Example VIII); format: cell-based, Staphylococcus aureus
Text: The following illustrates the general antibacterial methods according to the invention, using a MRSA model for the in vitro Experiments V and VIII-XII.
a) μ1 is sub-lethal dosimetry from the NIMEL laser system on MRSA as a control and;

[2] = tested on: MRSA colonization in the nares; experiment: Human study Part One: nasal colonization of MRSA, NOVEON laser alone, with H2O2 or with topical erythromycin; format: in vivo, Staphylococcus aureus
Description: (§1) This investigational protocol was an open-label study of subjects who are colonized with MRSA in the nares (nostril). The study was done in two parts.
(§2) In this human study, three arms were produced. […] This was done on day 1 and again on day three; and Arm #3: ⅓ of the subjects were treated with the laser and then a topical antibiotic three times a day for five days. Prior to enrollment in this study, prospective subjects met all of the following criteria: age≧18 years and ≦70 years of age; previous positive MRSA culture; negative urine pregnancy test or post-menopausal for one year; willing to comply with study requirements, including return visits and self-application of topical antibiotics; and willing to provide informed consent to participate. Prospective subjects were excluded from this study if any of the following criteria were met: pregnancy; patients who are severely immunocompromised (such as may occur in AIDS, renal transplant regimens, immunosuppressed states consequent to malignancy or agents used in rendering oncologic care, or who suffer from end stage renal disease); diabetic patients; allergy to antimicrobials being used in the study (group 3).
(§3) All participants underwent an initial quantitative assessment for nasal carriage of S. aureus, during their first visit. Each participant had the anterior nares (each nostril) sampled for culture with a circular movement (three rotations on each side) of a sterile wood applicator plain Rayon® tipped swab in each nostril and placed in a labeled tube. 2 ml of room temp phosphate buffered saline was placed in the tube after the removal of the swab (to completely cover the swab in the tube). Each swab was then placed back in the tube and the tube was then vortexed for 15 seconds to disperse isolates of MRSA and/or MSSA into the PBS solution. Aliquots of PBS from the tube were plated in the following manner: 100 μl from each tube was lawn plated in triplicate (3×) on selective Chromogenic MRSA And MSSA agar. Plates were placed in incubator within 30 minutes of the plating procedure, and colonies were counted manually, and recorded 18 hrs after plating.
(§4) On day one of the study, all subjects underwent this exact procedure in arms 1 and 2 of the study two minutes before the laser procedure. They again were sampled in the same manner 2 minutes after the laser procedure. In the third arm of the study, they were swabbed two minutes before the procedure and the first antibiotic administration was completed after the laser therapy. The post/laser swab sample was taken for this arm 20 min later.
(§5) On day three of the study, all subjects from arms one two and three underwent the exact same procedures as day 1 of the study.
(§6) On day five all subjects from all arms underwent just one swabbing per nostril with the exact same sampling procedure one time.
(§7) 3% OTC hydrogen peroxide was applied to a cotton pledget for application to the subject prior to irradiation. This was inserted in the nose for 120 seconds and then removed. The subjects were then given doses of phototherapeutic near infrared radiation as described.
(§8) The subjects were first given doses of phototherapeutic near infrared radiation as described. […] The swab was inserted approximately 1 cm in to the anterior nares and rotated 360 degrees several times and removed. Patients were instructed to perform the exact application procedure 3 times a day for the remaining 5 days.
(§9) The NOVEON™ laser was used for two (2) six-minute treatments in each nostril on day (1) and day (3) of the study.
(§10) The laser was calibrated before the first treatment of the day. Intermittent temperature testing of the treatment site was performed on each subject using a noncontact infrared thermometer (Raytek Minitemp), 30-60 second intervals. If a temperature of 110 F degrees was reached, or the patient complained of pain, the laser treatment was interrupted and only resumed when the patient was comfortable.

[3] = tested on: nasal colonization of MRSA; experiment: Human study Part Two: nasal colonization of erythromycin resistant MRSA, NOVEON laser plus 2% erythromycin paste; format: in vivo, Staphylococcus aureus; details: six patients, before phototherapy
Description: (§11) A second human study was conducted, to further evaluate the therapeutic potential of the NOVEON™ laser system, including its ability to reverse drug resistance in bacteria. The study was conducted in a similar manner as Part One, above. Outcome measures assessed included both laboratory study and clinical observations.
(§12) Positive anterior nares cultures were obtained in six patients (12 nostrils) having nasal colonization of MRSA or MSSA, before initiating bacterial photodamage through doses of phototherapeutic near infrared radiation.
(§13) The swab was inserted approximately 1 cm in to the anterior nares of the subject, rotated 360 degrees several times and removed.
(§14) The laser was calibrated before the first treatment of the day and between each patient. The NOVEON™ laser was used for four six-minute treatments of the nares at the following sets of dosimetries (Tables 45), which were evaluated for safety in previous studies. Utilizing a 10 cm flat-top diffuser, each patient underwent exposure with the Noveon for […] (energy density—207 J/cm2) to each anterior nostril on Day 1 and on Day 3. The treatment was divided into two parts, an approximately 3-minute exposure using a combination of 870 nm and 930 nm and an approximately 3-minute exposure of 930 nm alone. Temperatures of the nares were recorded every 30 seconds with an IR temperature thermometer.

[4] = tested on: MRSA; experiment: MRSA/antimicrobial potentiation Experiment 4: CFU with or without methicillin, penicillin G or erythromycin, groups A4 to F4; format: cell-based, Staphylococcus aureus; details: for CFU: agar with 4 μg/ml erythromycin
Description: Two different laser dosages based on an effective dose established in previous experiments were used to treat a saline-suspension of logarithmically growing MRSA, labeled A4 to F4.
After 24 hrs of growth at 37° C. colonies were counted.

[5] = tested on: MSSA colonies in the nares; experiment: Human study Part One: nasal colonization of MSSA, NOVEON laser alone, with H2O2 or with topical erythromycin; format: in vivo, Staphylococcus aureus; details: patient 01-005, Laser/erythromycin arm
Description: as §1, §2, §3, §4, §5, §6, §7, §8, §9, §10

[6] = tested on: nasal colonization of MSSA; experiment: Human study Part Two: nasal colonization of erythromycin resistant MSSA, NOVEON laser plus 2% erythromycin paste; format: in vivo, Staphylococcus aureus; details: six patients, before phototherapy
Description: as §11, §12, §13, §14

[7] = patient 01-005, Laser/erythromycin arm, 2% erythromycin paste 3 times a day

CC[C@H]1OC(=O)[C@H](C)[C@@H](O[C@H]2C[C@@](C)(OC)[C@@H](O)[C@H](C)O2)[C@H](C)[C@@H](O[C@@H]2O[C@H](C)C[C@H](N(C)C)[C@H]2O)[C@](C)(O)C[C@@H](C)C(=O)[C@H](C)[C@@H](O)[C@]1(C)O [Erythromycin]
MRSA colony count, EXPERIMENTAL, erythro 4 ug/ml ([1]; sub-lethal NIMELS laser, then plated on agar with erythromycin 4 ug/ml, plates B-4 1 to 5): 27 and 39 and 35 and 28 | effect of sub-lethal NIMELS on antibiotic resistance of MRSA (in words) ([1]; sub-lethal laser parameters, erythromycin 4 ug/ml): resistance to erythromycin being reversed | outcome on MRSA colonization (in words) ([2]; patient 01-005, Laser/erythromycin arm): MRSA and MSSA eradication in both nostrils | reduction of bioburden, heavily colonized nostril [2, 7]: ≥ 3 log | reduction of bioburden, moderately colonized nostril [2, 7]: ≥ 2 log | sensitivity of the patient's MRSA colony to erythromycin before phototherapy ([2]; patient 01-005, prior to phototherapy): not sensitive to erythromycin prior to phototherapy | erythromycin resistance of cultured MRSA at baseline [3]: resistant to erythromycin | CFU ([4]; Group E4, Exp (laser treated), replicate plates 1-5): 0 CFU (3×) and 1 CFU (2×) | CFU ([4]; Group F4, Cont (no laser), replicate plates 1-5, 24 hrs 37° C.): 170 CFU | CFU ([4]; Group F4, Exp (laser treated), replicate plates 1-5): 2 CFU and 7 CFU and 6 CFU (2×) and 8 CFU | synergy or potentiation with NIMELS in growth inhibition of MRSA colonies (in words) ([4]; sub-lethal NIMELS dosimetry, bar chart figure): synergistic effects; also recorded: potentiated to a greater extent | reversal of MRSA resistance in vitro by dual wavelength NOVEON laser (in words) ([4]; temperature levels not lethal to the organism): successful reversal of MRSA resistance | outcome on MSSA colonization (in words) [5]: MRSA and MSSA eradication in both nostrils | erythromycin resistance of cultured MSSA at baseline [6]: resistant to erythromycin
